According to ChEMBL document CHEMBL5046240, “Design, synthesis, and evaluation of potent RIPK1 inhibitors with in vivo anti-inflammatory activity” (Eur J Med Chem, 2022):
The source made the active and inactive calls. No cut-off for these calls is given here.

How the values were obtained:
[1] = Cmax in Sprague-Dawley rat at 2 mg/kg, iv measured upto 24 hrs by LC-MS/MS analysis; format: ADME, organism-based; design: route intravenous, dose 2 mg/kg, time <=24; conditions: in vivo
[2] = tested on: HT-29; experiment: Anti-necroptic activity in human HT-29 cells assessed as TNFalpha/Z-VAD (TSZ) induced necroptosis by measuring cell viability preincubated for 1 hr followed by TSZ addition ans measured after 24 hrs by celltiter-glo luminescent cell viability assay; format: functional, cell-based
[3] = tested on: L929; experiment: Anti-necroptic activity in mouse L929 cells assessed as TNFalpha/Z-VAD (TSZ) induced necroptosis by measuring cell viability preincubated for 1 hr followed by TSZ addition and measured after 24 hrs by celltiter-glo luminescent cell viability assay; format: functional, cell-based
[4] = Metabolic stability in human liver microsomes assessed as half life by LC-MS/MS analysis; format: ADME
[5] = target: Voltage-gated inwardly rectifying potassium channel KCNH2 (Homo sapiens, UniProt Q12809); experiment: Inhibition of hERG expressed in CHO cells at -80 mV holding potential measured after 4mins by automated patch-clamp assay; format: toxicity, cell-based
[6] = target: CYP2C9 (Homo sapiens, UniProt P11712); experiment: Inhibition of CYP2C9 (unknown origin) using tolbutamide as cocktail probe substrate at 10 uM preincubated for 20 mins followed by substrate addition and measured after 20 mins by LC-MS/MS analysis relative to control; format: ADME; conditions: time 40 min
[7] = target: CYP2D6 (Homo sapiens, UniProt P10635); experiment: Inhibition of CYP2D6 (unknown origin) using dextromethorphan as cocktail probe substrate at 10 uM preincubated for 20 mins followed by substrate addition and measured after 20 mins by LC-MS/MS analysis relative to control; format: ADME; conditions: time 40 min
[8] = Protein binding in human plasma by LC-MS/MS based equilibrium dialysis method; format: ADME, cell-free; conditions: read-out: PPB (converted)
[9] = Protein binding in rat plasma by LC-MS/MS based equilibrium dialysis method; format: ADME, cell-free; conditions: read-out: PPB (converted)
[10] = Metabolic stability in rat liver microsomes assessed as half life by LC-MS/MS analysis; format: ADME, Microsome
[11] = Metabolic stability in human liver microsomes assessed as intrinsic clearance by LC-MS/MS analysis; format: ADME, Microsome; conditions: read-out: CLH
[12] = Clearance in Sprague-Dawley rat at 2 mg/kg, iv measured upto 24 hrs by LC-MS/MS analysis; format: ADME, organism-based; conditions: in vivo
[13] = Volume of distribution at steady state in Sprague-Dawley rat at 2 mg/kg, iv measured upto 24 hrs by LC-MS/MS analysis; format: ADME, organism-based; conditions: in vivo, read-out: Vdss
[14] = target: T1, Receptor-interacting serine/threonine-protein kinase 1 (Homo sapiens, UniProt Q13546); experiment: Binding affinity to wild-type human partial length RIPK1 (M1 to K305 residues) expressed in bacterial expression system measured after 1 hr by Kinomescan method
T1 sequence (Q13546 whole entry): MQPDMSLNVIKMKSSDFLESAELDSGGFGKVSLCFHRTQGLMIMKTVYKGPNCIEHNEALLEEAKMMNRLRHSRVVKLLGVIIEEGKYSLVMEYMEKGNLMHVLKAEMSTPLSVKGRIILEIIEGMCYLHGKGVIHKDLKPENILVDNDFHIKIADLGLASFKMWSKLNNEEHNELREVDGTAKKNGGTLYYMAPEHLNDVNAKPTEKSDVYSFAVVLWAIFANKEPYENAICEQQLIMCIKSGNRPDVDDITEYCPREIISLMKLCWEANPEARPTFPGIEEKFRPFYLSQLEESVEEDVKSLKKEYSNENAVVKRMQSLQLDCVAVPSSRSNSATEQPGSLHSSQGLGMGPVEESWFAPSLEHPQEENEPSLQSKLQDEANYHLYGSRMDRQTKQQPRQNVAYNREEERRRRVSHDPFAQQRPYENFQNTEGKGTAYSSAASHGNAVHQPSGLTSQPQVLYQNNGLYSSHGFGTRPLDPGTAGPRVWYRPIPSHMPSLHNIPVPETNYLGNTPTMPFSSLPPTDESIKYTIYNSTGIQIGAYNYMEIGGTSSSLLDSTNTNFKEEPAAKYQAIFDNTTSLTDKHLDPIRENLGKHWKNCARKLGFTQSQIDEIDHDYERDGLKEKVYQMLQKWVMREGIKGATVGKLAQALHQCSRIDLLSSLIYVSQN

[15] = target: Receptor-interacting serine/threonine-protein kinase 3 (Homo sapiens) (UniProt Q9Y572); experiment: Binding affinity to wild-type human partial length RIPK3 (M1 to Q307 residues) expressed in bacterial expression system at 10000 nM measured after 1 hr by Kinomescan method
[16] = target: T1, Receptor-interacting serine/threonine-protein kinase 1; experiment: Inhibition of RIPK1 (unknown origin) using MBP and ATP as substrate preincubated for 10 mins followed by substrate addition and measured after 120 mins by ADP-Glo luminescence assay
[17] = tested on: Mus musculus; experiment: Anti-necroptosis activity against TNFalpha-induced C57BL/6J mouse systemic inflammatory response syndrome model assessed as reduction in lethal shock at 3 mg/kg, ip pretreated for 15 mins and measured upto 72 hrs after TNFalpha stimulation; format: functional, organism-based
[18] = tested on: Mus musculus; experiment: Antiinflammatory activity in TNFalpha-induced C57BL/6J mouse systemic inflammatory response syndrome model assessed as reduction in IL-6 production in serum at 3 mg/kg, ip pretreated for 15 mins and measured upto 72 hrs after TNFalpha stimulation; format: functional, organism-based
[19] = Toxicity in C57BL/6J mouse assessed as effect on body weight at 5 to 25 mg/kg, po administered daily for 7 days; format: organism-based; conditions: in vivo, 168 h, dose 5-25 mg/kg, time 7 day
[20] = Toxicity in C57BL/6J mouse assessed as effect on heart morphological changes at 5 to 25 mg/kg, po administered daily for 7 days by Hand E staining method; format: organism-based; conditions: in vivo, 168 h, dose 5-25 mg/kg, time 7 day
[21] = Toxicity in C57BL/6J mouse assessed as effect on kidney morphological changes at 5 to 25 mg/kg, po administered daily for 7 days by H and E staining method; format: organism-based; conditions: in vivo, 168 h, dose 5-25 mg/kg, time 7 day
[22] = Toxicity in C57BL/6J mouse assessed as effect on lung morphological changes at 5 to 25 mg/kg, po administered daily for 7 days by H and E staining method; format: organism-based; conditions: in vivo, 168 h, dose 5-25 mg/kg, time 7 day
[23] = Half life in Sprague-Dawley rat at 2 mg/kg, iv measured upto 24 hrs by LC-MS/MS analysis; format: ADME, organism-based; conditions: in vivo
[24] = Half life in Sprague-Dawley rat at 10 mg/kg , po measured upto 24 hrs by LC-MS/MS analysis; format: ADME, organism-based; conditions: in vivo
[25] = Cmax in Sprague-Dawley rat at 10 mg/kg, po measured upto 24 hrs by LC-MS/MS analysis; format: ADME, organism-based; design: route oral, dose 10 mg/kg, time <=24; conditions: in vivo
[26] = tested on: Mus musculus; experiment: Anti-necroptosis activity against TNFalpha-induced C57BL/6J mouse systemic inflammatory response syndrome model assessed as reduction in hypothermia at 3 mg/kg, ip pretreated for 15 mins and measured upto 72 hrs after TNFalpha stimulation; format: functional, organism-based
[27] = Toxicity in C57BL/6J mouse assessed as effect on behavioral change at 5 to 25 mg/kg, po administered daily for 7 days; format: organism-based; conditions: in vivo, 168 h, dose 5-25 mg/kg, time 7 day
[28] = Toxicity in C57BL/6J mouse assessed as effect on food intake at 5 to 25 mg/kg, po administered daily for 7 days; format: organism-based; conditions: in vivo, 168 h, dose 5-25 mg/kg, time 7 day
[29] = Protein binding in rat plasma assessed as unbound fraction by LC-MS/MS based equilibrium dialysis method; format: ADME, cell-free

Receptor-interacting serine/threonine-protein kinase 3 (Homo sapiens), sequence (Q9Y572 whole entry, looked up, the tested form may be a part): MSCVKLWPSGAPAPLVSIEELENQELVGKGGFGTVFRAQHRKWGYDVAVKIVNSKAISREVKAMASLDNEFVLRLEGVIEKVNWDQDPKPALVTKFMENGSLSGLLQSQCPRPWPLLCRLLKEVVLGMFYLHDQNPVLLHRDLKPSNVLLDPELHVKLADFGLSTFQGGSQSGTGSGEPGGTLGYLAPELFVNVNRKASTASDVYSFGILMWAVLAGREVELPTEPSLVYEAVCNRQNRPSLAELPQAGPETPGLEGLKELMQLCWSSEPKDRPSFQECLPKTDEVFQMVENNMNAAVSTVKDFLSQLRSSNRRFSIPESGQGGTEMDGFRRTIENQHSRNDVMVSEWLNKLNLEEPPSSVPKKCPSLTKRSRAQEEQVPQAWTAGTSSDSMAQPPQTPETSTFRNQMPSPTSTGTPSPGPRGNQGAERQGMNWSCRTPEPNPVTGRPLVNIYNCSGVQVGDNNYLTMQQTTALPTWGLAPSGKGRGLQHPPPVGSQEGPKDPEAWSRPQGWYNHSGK
Voltage-gated inwardly rectifying potassium channel KCNH2, sequence (Q12809 whole entry): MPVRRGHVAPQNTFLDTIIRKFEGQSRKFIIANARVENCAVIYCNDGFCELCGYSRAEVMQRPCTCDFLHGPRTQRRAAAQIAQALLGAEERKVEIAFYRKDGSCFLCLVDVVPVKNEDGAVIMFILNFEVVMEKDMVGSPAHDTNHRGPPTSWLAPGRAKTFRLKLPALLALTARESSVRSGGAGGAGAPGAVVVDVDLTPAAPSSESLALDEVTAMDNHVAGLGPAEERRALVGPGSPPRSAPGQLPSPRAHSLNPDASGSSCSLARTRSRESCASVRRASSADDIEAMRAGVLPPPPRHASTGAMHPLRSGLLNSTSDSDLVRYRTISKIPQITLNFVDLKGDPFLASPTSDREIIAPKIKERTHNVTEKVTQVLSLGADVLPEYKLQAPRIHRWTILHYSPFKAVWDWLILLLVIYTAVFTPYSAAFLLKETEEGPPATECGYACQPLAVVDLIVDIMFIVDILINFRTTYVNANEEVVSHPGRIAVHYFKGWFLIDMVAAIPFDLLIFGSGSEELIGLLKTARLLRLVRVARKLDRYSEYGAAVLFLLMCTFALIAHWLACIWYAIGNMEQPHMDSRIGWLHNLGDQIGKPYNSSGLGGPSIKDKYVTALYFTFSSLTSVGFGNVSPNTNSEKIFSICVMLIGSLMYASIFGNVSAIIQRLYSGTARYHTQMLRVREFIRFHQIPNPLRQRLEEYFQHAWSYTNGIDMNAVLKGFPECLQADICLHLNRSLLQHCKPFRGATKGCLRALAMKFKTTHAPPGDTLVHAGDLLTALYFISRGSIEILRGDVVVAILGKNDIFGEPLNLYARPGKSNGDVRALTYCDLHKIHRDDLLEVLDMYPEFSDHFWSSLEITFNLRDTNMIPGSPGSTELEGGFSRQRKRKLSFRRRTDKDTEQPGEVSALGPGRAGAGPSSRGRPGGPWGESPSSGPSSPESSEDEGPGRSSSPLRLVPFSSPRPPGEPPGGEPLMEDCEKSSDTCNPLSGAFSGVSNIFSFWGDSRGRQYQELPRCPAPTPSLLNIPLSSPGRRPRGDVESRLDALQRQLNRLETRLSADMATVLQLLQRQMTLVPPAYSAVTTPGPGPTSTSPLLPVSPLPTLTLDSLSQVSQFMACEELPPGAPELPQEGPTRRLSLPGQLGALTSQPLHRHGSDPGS
CYP2C9, sequence (P11712 whole entry): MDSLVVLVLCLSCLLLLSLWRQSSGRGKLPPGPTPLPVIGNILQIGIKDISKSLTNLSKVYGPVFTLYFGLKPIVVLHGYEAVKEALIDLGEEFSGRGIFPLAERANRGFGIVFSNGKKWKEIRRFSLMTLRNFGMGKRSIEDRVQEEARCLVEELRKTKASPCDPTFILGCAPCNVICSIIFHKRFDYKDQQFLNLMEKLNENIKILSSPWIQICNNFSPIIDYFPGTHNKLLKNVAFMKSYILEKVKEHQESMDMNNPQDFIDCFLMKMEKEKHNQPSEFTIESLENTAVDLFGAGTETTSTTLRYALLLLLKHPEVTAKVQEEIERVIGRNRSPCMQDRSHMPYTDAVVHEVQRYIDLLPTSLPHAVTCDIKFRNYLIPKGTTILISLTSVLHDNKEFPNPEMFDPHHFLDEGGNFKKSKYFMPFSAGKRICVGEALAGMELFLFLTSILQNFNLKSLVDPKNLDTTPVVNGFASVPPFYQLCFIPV
CYP2D6, sequence (P10635 whole entry): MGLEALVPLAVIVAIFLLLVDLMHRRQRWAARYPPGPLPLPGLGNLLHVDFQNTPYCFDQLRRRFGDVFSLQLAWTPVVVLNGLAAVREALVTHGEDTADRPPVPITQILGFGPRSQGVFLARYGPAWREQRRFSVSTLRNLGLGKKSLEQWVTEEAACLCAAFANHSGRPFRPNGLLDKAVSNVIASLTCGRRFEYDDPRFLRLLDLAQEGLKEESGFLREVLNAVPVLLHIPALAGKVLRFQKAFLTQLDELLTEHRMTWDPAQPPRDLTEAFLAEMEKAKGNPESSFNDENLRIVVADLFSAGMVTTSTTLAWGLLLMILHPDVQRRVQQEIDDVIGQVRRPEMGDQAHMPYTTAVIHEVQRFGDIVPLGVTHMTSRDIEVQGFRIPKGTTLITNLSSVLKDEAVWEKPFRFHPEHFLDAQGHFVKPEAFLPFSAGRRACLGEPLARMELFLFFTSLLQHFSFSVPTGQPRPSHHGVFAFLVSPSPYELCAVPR

Cmax [1]: 1330 ng/mL | half-life [4]: 89 min | inhibition at 20 min, 10 µM [6]: 62% | inhibition at 20 min, 10 µM [7]: 21% | fraction unbound [8]: 0.016 | fraction unbound [9]: 0.018 | half-life [10]: 39 min | CLint scaled [11]: 49 mL/min/kg | clearance [12]: 33 mL/min/kg | Vd [13]: 2.4 L/kg | Kd [14]: 9.2 nM | Activity [15]: inactive | IC50 [16]: 67 nM | half-life [23]: 60 min | half-life [24]: 102 min | Cmax [25]: 1240 ng/mL | fraction unbound [29]: 0.018
SMILES: Cc1ncc(-c2ccc3nc(NC(=O)C4CC4)sc3c2)cc1NC(=O)OC1CCOCC1
EC50 [2]: 17 nM | EC50 [3]: 30 nM | IC50 [5]: > 30 µM | Activity [17]: Active | Activity [18]: Active | Activity [19]: Non-Toxic | Activity [20]: Non-Toxic | Activity [21]: Non-Toxic | Activity [22]: Non-Toxic | Activity [26]: Active | Activity [27]: Non-Toxic | Activity [28]: Non-Toxic
